# Test system: PGE2 production in celiac macrophages
# Assay: PGE2 production of celiac macrophages from orally dosed mice
# Type: in vivo
# Conditions: 1% suspension in olive oil, forced oral administration once a day, 12 times in 15 days, 10 or 30 ml/kg, ddY mice
# Procedure: The compound (7) in Example 1 was suspended in olive oil (Nacalai Tesque) at a concentration of 1% to prepare a 1% suspension of the compound (7). The 1% suspension of the compound (7) prepared as described above was administered to ddY mice (Japan SLC, female, 7 weeks old) by forced oral administration once a day, 12 times in 15 days, at a dosage of 10 or 30 ml/kg. Tap water was similarly administered by forced oral administration as a control. Each group consisted of 3 mice. Thereafter, 4 ml of RPMI 1640 medium (Bio Whittaker, Code. 12-702F) containing 10% fetal calf serum was intraperitoneally injected. Media removed from 3 mice after extensive massage were combined to obtain celiac cells. The celiac cells were suspended in RPMI 1640 medium containing 10% fetal calf serum at a concentration of 10^6 cells/ml. 500 μl of the suspension was added to each well of a 48-well microtiter plate and the plate was incubated at 37° C. for 2 hours in the presence of 5% CO2. Adhesive cells obtained by removing the culture supernatant were used as celiac macrophages. […] After the plate was incubated for additional 12 hours, the amount of prostaglandin E2 (PGE2) was measured. […] After cultivation, the amount of prostaglandin E2 in the culture supernatant was measured using Prostaglandin E2 ELISA Kit (Neogen, Code. 404110). […]
smiles,measurement,value
"O=C[C@H](O)[C@H]1OC[C@@H](O)[C@@H]1OC(=O)c1ccccc1 [Compound (7), 4-O-benzoyl-3,6-anhydro-D-galactose]",activity of inhibiting PGE2 production in celiac macrophages (LPS),remarkable activity of inhibiting PGE2 production

# Reference: patent US6518302B1, “Remedies” (Takara Shuzo Co., Ltd., priority 1999, dated 2003)
